According to EP0043274A2, “Antithrombotic treatment” (priority 1980, dated 1982):
Read-outs that look alike come from different tables or passages of the source.

Key:
human plasma [1] = format: biochemical; settings: for PT (effect in words): in vitro, 0.5 mg/ml
human plasma [2] = format: biochemical; settings: for PTT (effect in words): in vitro
[3] = test system: thrombus formation in the jugular vein; experiment: I 125 fibrinogen technique, damaged jugular vein (venous thrombosis), continuous infusion; format: in vivo, rabbits
Method: The anti venous thrombotic effect of sodium bisulfite is evaluated in rabbits by using I ^125 fibrinogen technique as described in an article in "Archives of Surgery" Vol. 104, pg. 152 (1972).
The rabbit was continuously infused with aqueous sodium bisulfite solution at the rate of […]. (5.154 gram per hour) (animal body weight 2.3 kg) for a time of five hours. After 5 hours, the animal was sacrificed and the radioactive fibrinogen accumulated in the damaged jugular vein was determined. The radioactivity on the contra-lateral (undamaged) jugular vein was also determined to serve as a control. Concurrently, another rabbit had experienced the same procedure but received only a standard sodium chloride solution as a control. The rabbit from the normal saline solution has seven times as much radioactivity as his counterpart infused with sodium bisulfite.
Two jugular veins on a normal, healthy rabbit are exposed and one of the veins is systematically damaged by clamping in two longitudinally spaced places. The rabbit is then continuously infused with aqueous sodium formaldehyde bisulfite at the rate of […] (5.154 gram per hour) (animal body weight 2.3 kg). The rabbit is then injected with fibrinogen labeled with I^125. After 5 hours, the damaged jugular vein is evaluated for radioacive count with a Geiger counter.
This iodine 125 evaluation technique is described by Kakkar in Archieves of Surgery, Vol. 104, pg. 152 (1972) and by Kelton, J.G. et al, Journal of Clinical Investigation, Vol. 62, pgs. 892-895, (1978). […] Other rabbits, similarly evaluated, died, apparently because of overdose by the infustion technique.

FIBRINOGEN [4] = molecular target: T1, FIBRINOGEN (Homo sapiens, UniProt P02671+P02675+P02679); experiment: Coagulation factor assay (Biggs): fibrinogen; format: biochemical; settings: mean of two experiments; control 205
T1 construct: from tissue; host or cells: human plasma
T1 sequence (P02671 20-629 limits assumed): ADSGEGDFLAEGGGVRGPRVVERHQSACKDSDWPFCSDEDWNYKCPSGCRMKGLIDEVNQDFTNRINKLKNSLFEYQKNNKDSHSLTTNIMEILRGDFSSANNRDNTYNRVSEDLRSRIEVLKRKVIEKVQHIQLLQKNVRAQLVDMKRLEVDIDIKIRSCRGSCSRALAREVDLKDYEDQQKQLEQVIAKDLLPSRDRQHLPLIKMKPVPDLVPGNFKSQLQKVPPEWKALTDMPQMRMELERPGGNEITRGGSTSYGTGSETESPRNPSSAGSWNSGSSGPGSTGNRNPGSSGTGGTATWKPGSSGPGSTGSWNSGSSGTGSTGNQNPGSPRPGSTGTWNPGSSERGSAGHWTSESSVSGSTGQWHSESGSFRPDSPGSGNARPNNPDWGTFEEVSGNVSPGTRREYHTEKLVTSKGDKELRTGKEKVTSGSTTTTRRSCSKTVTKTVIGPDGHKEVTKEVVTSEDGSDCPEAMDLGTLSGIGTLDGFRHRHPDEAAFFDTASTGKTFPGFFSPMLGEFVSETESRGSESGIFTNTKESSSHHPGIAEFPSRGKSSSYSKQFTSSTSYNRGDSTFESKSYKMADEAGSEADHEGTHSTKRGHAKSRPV
T1 sequence (P02675 31-491): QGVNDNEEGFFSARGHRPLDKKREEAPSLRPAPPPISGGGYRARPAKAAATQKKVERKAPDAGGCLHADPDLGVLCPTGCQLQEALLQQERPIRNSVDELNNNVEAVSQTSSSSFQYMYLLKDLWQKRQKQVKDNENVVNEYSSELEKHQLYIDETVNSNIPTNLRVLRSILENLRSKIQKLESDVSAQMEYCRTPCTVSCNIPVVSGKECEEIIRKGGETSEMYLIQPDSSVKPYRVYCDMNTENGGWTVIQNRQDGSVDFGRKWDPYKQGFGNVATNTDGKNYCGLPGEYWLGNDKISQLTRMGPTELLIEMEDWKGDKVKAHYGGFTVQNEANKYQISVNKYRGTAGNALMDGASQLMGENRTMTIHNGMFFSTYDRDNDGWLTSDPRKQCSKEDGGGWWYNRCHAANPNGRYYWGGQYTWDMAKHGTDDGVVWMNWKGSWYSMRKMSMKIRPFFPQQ
T1 sequence (P02679 27-453): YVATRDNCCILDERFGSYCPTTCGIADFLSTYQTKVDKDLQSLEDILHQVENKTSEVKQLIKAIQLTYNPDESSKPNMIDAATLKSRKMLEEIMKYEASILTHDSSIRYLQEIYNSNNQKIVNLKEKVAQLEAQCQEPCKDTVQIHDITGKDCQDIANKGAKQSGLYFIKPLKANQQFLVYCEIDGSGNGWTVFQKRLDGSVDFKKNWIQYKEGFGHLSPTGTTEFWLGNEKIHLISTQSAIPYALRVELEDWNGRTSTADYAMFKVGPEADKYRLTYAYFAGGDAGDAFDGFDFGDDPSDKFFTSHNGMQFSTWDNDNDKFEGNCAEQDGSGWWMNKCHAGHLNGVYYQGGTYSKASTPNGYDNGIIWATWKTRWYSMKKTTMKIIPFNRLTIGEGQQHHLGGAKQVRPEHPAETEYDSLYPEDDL
Method: (§1) The effect of U.S.P. grade sodium bisulfite on blood coagulation factors is evaluated by standard procedures (Biggs) and the results are shown in Table III below.
(§2) References for PT, PTT, and assays of all the coagulation factors can be found in a standard textbook, entitled "Human Blood Coagulation, Haemostasis and Thrombosis", edited by Rosemary Biggs, published by Blackwell Scientific Publications, Oxford, England (2nd edition), pages 670-705, 1976.

platelet rich plasma [5] = experiment: Platelet aggregation in platelet rich plasma from injected rabbit (ex vivo); settings: injected with about 72 mg/kg of body weight; blood sample after 5 hours
Method: A rabbit is injected with about +72 mg/kg of body weight of triethyl amine bisulfite. After a period of 5 hours, a blood sample was withdrawn and centrifuged at 1000 r.p.m. (220 g) for 10 minutes to give a platelet rich plasma. […] It is concluded that triethyl amine bisulfite is an agent which inhibits thrombotic condition formation in vivo.
A rabbit is injected with about 72 mg/kg of body weight of sodium formaldehyde bisulfite. After a period of 5 hours, a blood sample was withdrawn and centrifuged at 1000 r.p.m. (220 g) for 10 minuts to give a platelet rich plasma. […] It is concluded that sodium formaldehyde bisulfite is an agent which inhibits thrombus formation in vivo.

thrombus = experiment: Antithrombotic effect in rabbit (Kelton et al); format: in vivo; settings: 50 mg/kg
Description: Evaluation of the antithrombotic effect of sodium formaldehyde bisulfite was caried out on a rabbit as described in Kelton et al: "Thrombogenic Effect of High Dose Aspirin in Rabbits", Journal of Clinical Investigation", Volume 62, pages 892-895, 1978.

[6] = test system: rabbit platelet rich plasma; experiment: Platelet aggregation in platelet rich plasma, platelet aggregometer (technique of Born); format: cell-based; settings: platelet rich plasma from rabbit
Method: (§3) Platelet rich plasma from rabbit and men was prepared by the centrugation technique referenced in Example 13. Using ADP (adosine diphosphate) as a stimulus rapid aggregation of platelets occurred. […] This procedure is described in the article by Born in Nature, Vol. 194, pgs. 927-929 (1962).
(§4) Platelet rich plasma from rabbits and men was prepared by the centrugation technique referenced in Example 13. Using ADP (adosine diphosphate) arachidonic acid as a stimulus, rapid aggregation of platelets occurred. […] This procedure is described in the article by Born, Nature, Vol. 194, pgs. 927-929 (1962).

blood = experiment: PT and PTT of blood after oral gavage; format: in vivo, rabbit; settings: orally by gavage about 50 mg/kg in two spaced doses (solution of Example X); after 1 day
[7] = test system: human platelet rich plasma; experiment: Platelet aggregation in platelet rich plasma, platelet aggregometer (technique of Born); format: cell-based; settings: platelet rich plasma from men
Description: A present preference for purposes of evaluating an - antithrombotic effect is to withdraw samples of blood from a patient undergoing treatment and to measure platelet aggregation. One method is described in the paper by Born in Nature 194, pp. 927-929 (1962), which may be used for this purpose if desired.
That sodium bisulfite is an antiplatelet aggregatory agent is shown by using a platelet aggregometer based on the technique of Born (above cited).
as §3, §4

rabbit plasma = experiment: Blood coagulation tests (PT, PTT, coagulation factors) in vitro; format: biochemical; settings: rabbit plasma in vitro, 0.5 mg/ml
Description: (§5) The alkali metalbisulfites, sodium and potassium, and ammonium bisulfite are found to prolong PT and PTT in a dose-related fashion.
The Solution I is found to prolong PT and PTT in a dose related fashion. […] The agent is active in inhibiting various coagulation factors, including factors VII, IX, X, XI, and XII.

rat plasma = experiment: as above; format: biochemical; settings: rat plasma in vitro, 0.5 mg/ml
Description: as §5

platelet rich plasma [8] = experiment: Platelet aggregation in platelet rich plasma, ADP stimulus (Example 25); format: cell-based; settings: plasma first treated with the compound
Description: Plasma was centrifuged at 1000 r.p.m. (200 g) to prepare a platelet rich plasma. Using adosine diphosphate (ADP) as a stimulous, rapid aggregation of platelets in the plasma was efected. On the other hand, when such plasma is first treatd with (a) tetramethyl ammonium sulfite, (b) tetramethyl ammonium bisulfite, and then (c) tetrabutyl

F IX = molecular target: T2, F IX (Homo sapiens, UniProt P00740); experiment: Coagulation factor assay (Biggs): Factor IX; format: biochemical; settings: single experiment; control 50
T2 construct: from tissue; host or cells: human plasma
T2 sequence (P00740 47-461): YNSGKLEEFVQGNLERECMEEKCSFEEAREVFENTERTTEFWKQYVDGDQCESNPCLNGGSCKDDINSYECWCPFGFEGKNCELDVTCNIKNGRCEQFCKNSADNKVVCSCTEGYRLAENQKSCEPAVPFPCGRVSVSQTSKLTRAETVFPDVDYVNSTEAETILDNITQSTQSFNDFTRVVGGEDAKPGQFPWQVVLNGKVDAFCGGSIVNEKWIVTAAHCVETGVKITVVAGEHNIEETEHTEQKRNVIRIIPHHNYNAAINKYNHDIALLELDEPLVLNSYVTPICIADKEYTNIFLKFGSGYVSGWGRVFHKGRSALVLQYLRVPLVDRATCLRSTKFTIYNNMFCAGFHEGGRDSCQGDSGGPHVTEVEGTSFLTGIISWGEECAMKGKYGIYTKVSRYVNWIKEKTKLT
Method: as §1, §2

FIBRINOGEN [9] = molecular target: T1, FIBRINOGEN; experiment: Coagulation factor assay (Biggs): fibrinogen; format: biochemical; settings: mean of 2 experiments; control 205
[10] = continuous infusion for five hours

**Q.** Which “MEAN LSD (PT)” value (human plasma [1]) does the source give for CCN(CC)CC.O=S(O)O [TRIETHYL AMINE SULFITE, triethyl amine sulfite] here?
**A.** The value was 16.9 ± 1.1 s.

**Q.** And the “PT(Sec) […]. 1” value (human plasma [1])?
**A.** The value was 17.0 s.

**Q.** And the “PT(Sec) […]. 2” value (human plasma [1])?
**A.** Its value is 18.5 s.

**Q.** What about the “PT(Sec) […]. 3” value (human plasma [1]) of the same molecule?
**A.** The value was 15.4 s.

**Q.** And the “PT(Sec) […]. 4” value (human plasma [1])?
**A.** The value was 16.6 s.

**Q.** What about the “PT(Sec) […].5” value (human plasma [1]) of the same molecule?
**A.** Its value is 16.8 s.

**Q.** And the “MEAN LSD (PTT)” value (human plasma [2])?
**A.** Its value is 60.6 ± 4.1 s.

**Q.** And the “PTT(Sec) […]. 1” value (human plasma [2])?
**A.** The value was 59.2 s.

**Q.** What about the “PTT(Sec) […]. 2” value (human plasma [2]) of the same molecule?
**A.** Its value is 65.1 s.

**Q.** And the “PTT(Sec) […]. 3” value (human plasma [2])?
**A.** Its value is 54.9 s.

**Q.** And the “PTT(Sec) […]. 4” value (human plasma [2])?
**A.** Its value is 59.0 s.

**Q.** What about the “PTT(Sec) […].5” value (human plasma [2]) of the same molecule?
**A.** The value was 64.0 s.

**Q.** And the “thrombus formation in the jugular vein (conclusion in words)” value [3, 10]?
**A.** Its value is “definite positive antithrombotic effect”.

**Q.** What about the “Fibrinogen (%)” value (FIBRINOGEN [4]) of the same molecule?
**A.** The value was 170%.

**Q.** Which results are given for O=S(=O)(O)CO [Sodium formaldehyde bisulfite]?
**A.** PT (human plasma [1]): 19.68 s; PT (human plasma [1]; 0.01 Molar, control 12.5): 24.4; PT (human plasma [1]; coded agents 0.5mg/ml, […], control 12.92): 19.50 s; PT REPLICATIONS I (human plasma [1]; control 13.1 (14.1 for Sodium formaldehyde Bisulfite)): 20.5; PT (effect in words) (human plasma [1]): effective; PTT (human plasma [2]; 0.5 mg/ml, two different days, control 42.6 / 42.10): 56.30 s; PTT (human plasma [2]; 0.01 Molar, control 33.4): 54.6; PTT (human plasma [2]; coded agents 0.5mg/ml, […], control 43.38): 58.60 s; PTT REPLICATIONS I (human plasma [2]; control 38.2 (50.5 for Sodium formaldehyde Bisulfite)): 63.5; PTT (effect in words) (human plasma [2]; 0.5 mg/ml): effective; mortality of infused rabbits ([3]; continuous infusion): died; radioactivity (I 125 fibrinogen) in damaged jugular vein of saline control rabbit relative to treated rabbit [3, 10]: more radioactivity; thrombus formation in the jugular vein (conclusion in words) [3, 10]: definite positive effect of decreasing thrombus formation; aggregation of platelets in comparison with an untreated rabbit (platelet rich plasma [5]): markedly decreased; disappearance of the thrombus compared with a control animal (thrombus): the thrombus disappeared more rapidly; platelet aggregation, ADP (adosine diphosphate) as a stimulus [6]: strong inhibition of platelet aggregation; PT and PTT values of the animal's blood compared with untreated control rabbit (blood): lengthened; platelet aggregation, ADP (adosine diphosphate) as a stimulus [7]: strong inhibition of platelet aggregation

**Q.** For ammonium bisulfite, which “PT (effect in words)” value (human plasma [1]) is on record?
**A.** Its value is “significantly prolong”.

**Q.** And the “PTT (effect in words)” value (human plasma [2]; 0.5 mg/ml)?
**A.** Its value is “significantly prolong”.

**Q.** What about the “PT and PTT (effect in words)” value (rabbit plasma) of the same molecule?
**A.** The value was “significantly prolong”.

**Q.** And the “PT and PTT (effect in words)” value (rat plasma)?
**A.** The value was “significantly prolong”.

**Q.** What does the source list for potassium bisulfite?
**A.** PT (effect in words) (human plasma [1]): significantly prolong; PTT (effect in words) (human plasma [2]; 0.5 mg/ml): significantly prolong; PT and PTT (effect in words) (rabbit plasma): significantly prolong; PT and PTT (effect in words) (rat plasma): significantly prolong

**Q.** Which “platelet aggregation, adosine diphosphate (ADP) as a stimulous” value (platelet rich plasma [8]) does the source give for C[N+](C)(C)C [Tetramethyl-ammonium sulfite] here?
**A.** The value was “inhibited”.

**Q.** And the “Factor IX (%)” value (F IX)?
**A.** The value was 20%.

**Q.** And the “Fibrinogen (%)” value (FIBRINOGEN [9])?
**A.** Its value is 175%.
